Reference: ChEMBL document CHEMBL5465560, “Selectivity Literature for EUbOPEN Chemogenomic Library” (2024)
Values belong to the compound of their own block, whether it stands above or below them.

Columns and labels:
[1] = target: Ribosomal protein S6 kinase alpha-1 (Homo sapiens, UniProt Q15418); settings: at 10 µM
[2] = target: Protein kinase C beta type (Homo sapiens, UniProt P05771); test: Selectivity interaction (Millipore kinase profiler) EUB0000124b PRKCB; settings: at 10 µM
[3] = target: Serine/threonine-protein kinase tousled-like 2 (Homo sapiens) (UniProt Q86UE8); test: Selectivity interaction (ActivX KiNativ screen (kinase selectivity in THP-1 cell lysates)) EUB0000639a TLK2; type: subcellular; settings: lysate, at 1 µM
[4] = target: T1, Interleukin-1 receptor-associated kinase 4 (Homo sapiens) (UniProt Q9NWZ3); test: Selectivity interaction (Kinase panel (literature)) EUB0001199aCl IRAK4; settings: at 1 µM
T1 sequence (whole entry): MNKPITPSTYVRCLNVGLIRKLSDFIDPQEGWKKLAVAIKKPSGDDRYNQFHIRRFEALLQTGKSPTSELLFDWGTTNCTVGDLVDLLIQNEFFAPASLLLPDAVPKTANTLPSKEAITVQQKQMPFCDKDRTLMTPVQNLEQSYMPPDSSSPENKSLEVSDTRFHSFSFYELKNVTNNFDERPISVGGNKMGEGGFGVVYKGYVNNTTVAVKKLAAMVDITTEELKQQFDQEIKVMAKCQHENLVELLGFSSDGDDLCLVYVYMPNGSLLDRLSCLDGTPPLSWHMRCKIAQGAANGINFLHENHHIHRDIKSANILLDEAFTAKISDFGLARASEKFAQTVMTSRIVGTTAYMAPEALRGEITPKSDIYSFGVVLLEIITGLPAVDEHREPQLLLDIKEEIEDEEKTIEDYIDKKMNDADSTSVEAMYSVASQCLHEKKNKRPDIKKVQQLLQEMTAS

[5] = target: RAF proto-oncogene serine/threonine-protein kinase (Homo sapiens) (UniProt P04049); test: Selectivity interaction (KinomeScan (DiscoverX)) EUB0000695a RAF1; settings: at 100 nM
Sequence of RAF proto-oncogene serine/threonine-protein kinase (Homo sapiens) (P04049 whole entry): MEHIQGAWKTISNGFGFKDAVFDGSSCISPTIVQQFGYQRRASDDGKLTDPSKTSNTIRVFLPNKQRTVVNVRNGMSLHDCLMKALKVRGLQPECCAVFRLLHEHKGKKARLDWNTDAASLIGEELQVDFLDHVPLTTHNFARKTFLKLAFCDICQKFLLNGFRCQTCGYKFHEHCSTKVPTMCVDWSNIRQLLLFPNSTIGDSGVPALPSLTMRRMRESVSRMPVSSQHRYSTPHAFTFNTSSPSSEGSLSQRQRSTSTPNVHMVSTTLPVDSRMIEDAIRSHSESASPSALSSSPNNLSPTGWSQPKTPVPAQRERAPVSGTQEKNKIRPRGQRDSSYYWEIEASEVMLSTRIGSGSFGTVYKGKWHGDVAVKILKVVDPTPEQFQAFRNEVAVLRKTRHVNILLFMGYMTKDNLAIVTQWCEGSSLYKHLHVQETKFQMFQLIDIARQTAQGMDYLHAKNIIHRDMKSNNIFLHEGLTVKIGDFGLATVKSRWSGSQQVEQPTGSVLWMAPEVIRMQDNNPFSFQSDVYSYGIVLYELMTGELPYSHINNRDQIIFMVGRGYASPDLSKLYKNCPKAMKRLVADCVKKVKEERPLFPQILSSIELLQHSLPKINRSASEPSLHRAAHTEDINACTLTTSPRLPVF

[6] = target: Cyclin-dependent kinase 15 (Homo sapiens) (UniProt Q96Q40); test: Selectivity interaction (KinomeScan (DiscoverX)) EUB0001079a CDK15; settings: at 1 µM
Sequence of Cyclin-dependent kinase 15 (Homo sapiens) (Q96Q40 whole entry): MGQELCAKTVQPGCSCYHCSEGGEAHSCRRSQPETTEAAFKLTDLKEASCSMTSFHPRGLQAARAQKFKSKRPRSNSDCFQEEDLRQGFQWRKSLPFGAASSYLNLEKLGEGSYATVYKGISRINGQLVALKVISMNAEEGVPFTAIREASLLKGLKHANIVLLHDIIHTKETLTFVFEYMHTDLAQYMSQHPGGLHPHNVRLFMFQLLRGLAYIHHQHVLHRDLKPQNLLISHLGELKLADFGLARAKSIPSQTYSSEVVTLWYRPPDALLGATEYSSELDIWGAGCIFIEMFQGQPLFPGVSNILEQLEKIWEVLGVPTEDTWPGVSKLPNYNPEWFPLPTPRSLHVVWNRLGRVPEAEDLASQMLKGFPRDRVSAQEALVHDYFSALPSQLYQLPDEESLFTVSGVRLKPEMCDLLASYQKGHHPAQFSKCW

[7] = target: Cyclin-dependent kinase 5 (Homo sapiens, UniProt Q00535); test: Selectivity interaction (KinomeScan (DiscoverX)) EUB0001079a CDK5; settings: at 1 µM
[8] = target: Coiled-coil domain-containing protein 6/Tyrosine-protein kinase receptor RET (Homo sapiens) (UniProt P07949+Q16204); test: Selectivity interaction (ProQinase) EUB0000171b RET; type: protein assay
Sequence of Coiled-coil domain-containing protein 6/Tyrosine-protein kinase receptor RET (Homo sapiens) (P07949 29-1114 limits assumed): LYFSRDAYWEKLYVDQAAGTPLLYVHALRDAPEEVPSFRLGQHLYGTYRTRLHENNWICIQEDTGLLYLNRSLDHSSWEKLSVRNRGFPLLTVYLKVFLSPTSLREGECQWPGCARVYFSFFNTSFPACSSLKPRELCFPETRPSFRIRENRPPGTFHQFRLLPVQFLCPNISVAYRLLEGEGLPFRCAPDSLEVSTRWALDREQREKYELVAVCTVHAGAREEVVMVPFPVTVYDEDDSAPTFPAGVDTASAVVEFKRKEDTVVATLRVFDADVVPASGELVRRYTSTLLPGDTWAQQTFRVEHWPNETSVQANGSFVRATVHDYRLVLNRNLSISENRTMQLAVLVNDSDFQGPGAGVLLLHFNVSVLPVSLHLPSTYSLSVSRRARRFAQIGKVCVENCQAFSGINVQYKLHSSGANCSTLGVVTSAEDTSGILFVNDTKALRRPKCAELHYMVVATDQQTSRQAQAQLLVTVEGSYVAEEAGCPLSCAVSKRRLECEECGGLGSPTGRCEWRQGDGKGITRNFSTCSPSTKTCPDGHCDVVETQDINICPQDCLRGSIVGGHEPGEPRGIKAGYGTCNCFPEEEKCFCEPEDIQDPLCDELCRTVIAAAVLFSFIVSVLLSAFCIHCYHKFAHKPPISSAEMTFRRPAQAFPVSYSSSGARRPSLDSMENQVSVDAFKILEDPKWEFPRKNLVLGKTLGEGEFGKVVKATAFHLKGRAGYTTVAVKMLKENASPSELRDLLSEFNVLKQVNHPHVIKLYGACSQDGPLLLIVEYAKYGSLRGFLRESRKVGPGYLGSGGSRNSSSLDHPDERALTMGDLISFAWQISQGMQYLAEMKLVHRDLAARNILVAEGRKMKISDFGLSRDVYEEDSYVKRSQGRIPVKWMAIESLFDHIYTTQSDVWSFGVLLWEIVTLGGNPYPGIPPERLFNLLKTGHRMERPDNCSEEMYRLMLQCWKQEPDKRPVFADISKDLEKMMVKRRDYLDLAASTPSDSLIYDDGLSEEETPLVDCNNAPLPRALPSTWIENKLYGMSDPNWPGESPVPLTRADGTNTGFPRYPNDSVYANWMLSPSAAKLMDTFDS
Sequence of Coiled-coil domain-containing protein 6/Tyrosine-protein kinase receptor RET (Homo sapiens) (Q16204 2-474 partner limits assumed): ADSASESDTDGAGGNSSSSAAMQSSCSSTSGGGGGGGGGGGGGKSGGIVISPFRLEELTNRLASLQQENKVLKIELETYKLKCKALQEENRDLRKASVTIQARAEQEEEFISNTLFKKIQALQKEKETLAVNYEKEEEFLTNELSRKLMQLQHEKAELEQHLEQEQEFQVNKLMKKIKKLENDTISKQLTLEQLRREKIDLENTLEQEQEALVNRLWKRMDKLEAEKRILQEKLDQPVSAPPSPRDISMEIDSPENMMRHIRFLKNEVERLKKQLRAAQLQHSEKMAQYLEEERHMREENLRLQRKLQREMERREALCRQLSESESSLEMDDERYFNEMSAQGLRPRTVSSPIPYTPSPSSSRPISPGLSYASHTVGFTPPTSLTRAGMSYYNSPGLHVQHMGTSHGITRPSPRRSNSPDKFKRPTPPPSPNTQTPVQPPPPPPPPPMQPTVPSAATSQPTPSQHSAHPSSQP

[9] = target: Tyrosine-protein kinase HCK (Homo sapiens) (UniProt P08631); test: Selectivity interaction (KinomeScan (DiscoverX)) EUB0000092b HCK; settings: at 10 µM
Sequence of Tyrosine-protein kinase HCK (Homo sapiens) (P08631 2-526 limits assumed): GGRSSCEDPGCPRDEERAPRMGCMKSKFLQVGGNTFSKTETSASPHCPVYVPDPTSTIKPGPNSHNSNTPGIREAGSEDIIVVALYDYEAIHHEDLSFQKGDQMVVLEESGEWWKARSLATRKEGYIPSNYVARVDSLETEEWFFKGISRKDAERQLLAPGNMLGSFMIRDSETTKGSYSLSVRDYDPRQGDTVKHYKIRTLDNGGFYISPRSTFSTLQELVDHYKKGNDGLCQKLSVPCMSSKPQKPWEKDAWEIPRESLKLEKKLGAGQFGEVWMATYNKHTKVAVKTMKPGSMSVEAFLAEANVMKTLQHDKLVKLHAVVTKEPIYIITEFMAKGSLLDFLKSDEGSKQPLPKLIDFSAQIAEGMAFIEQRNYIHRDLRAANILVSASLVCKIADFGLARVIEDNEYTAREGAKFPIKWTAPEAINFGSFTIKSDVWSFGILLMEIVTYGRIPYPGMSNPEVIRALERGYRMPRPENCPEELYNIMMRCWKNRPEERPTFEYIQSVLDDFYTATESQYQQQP

[10] = target: T2, Peripheral plasma membrane protein CASK (Homo sapiens) (UniProt O14936); test: Selectivity interaction (KinomeScan (DiscoverX)) EUB0000092b CASK; settings: at 10 µM
T2 sequence (whole entry): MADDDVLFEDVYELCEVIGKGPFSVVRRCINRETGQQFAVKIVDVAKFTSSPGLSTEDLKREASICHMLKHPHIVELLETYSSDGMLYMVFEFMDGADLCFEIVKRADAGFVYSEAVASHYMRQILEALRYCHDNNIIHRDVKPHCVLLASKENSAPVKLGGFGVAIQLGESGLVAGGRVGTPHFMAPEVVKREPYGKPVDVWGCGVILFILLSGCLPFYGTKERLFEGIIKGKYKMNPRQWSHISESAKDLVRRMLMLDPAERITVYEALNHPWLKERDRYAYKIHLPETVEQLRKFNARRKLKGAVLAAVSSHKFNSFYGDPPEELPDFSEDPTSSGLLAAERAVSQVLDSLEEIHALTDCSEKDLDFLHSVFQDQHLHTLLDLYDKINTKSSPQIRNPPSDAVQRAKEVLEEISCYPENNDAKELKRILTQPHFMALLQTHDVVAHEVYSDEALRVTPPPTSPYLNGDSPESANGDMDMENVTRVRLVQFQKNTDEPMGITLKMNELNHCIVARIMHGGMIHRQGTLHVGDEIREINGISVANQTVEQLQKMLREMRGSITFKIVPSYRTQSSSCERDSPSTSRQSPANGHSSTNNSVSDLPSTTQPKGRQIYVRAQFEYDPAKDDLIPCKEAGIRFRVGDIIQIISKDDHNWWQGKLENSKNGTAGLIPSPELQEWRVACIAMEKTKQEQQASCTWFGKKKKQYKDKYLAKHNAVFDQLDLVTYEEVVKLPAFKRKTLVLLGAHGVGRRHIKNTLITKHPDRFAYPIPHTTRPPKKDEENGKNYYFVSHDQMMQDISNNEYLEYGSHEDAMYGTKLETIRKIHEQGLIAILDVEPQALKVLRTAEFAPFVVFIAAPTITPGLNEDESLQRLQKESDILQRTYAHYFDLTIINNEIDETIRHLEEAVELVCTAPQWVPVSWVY

[11] = target: RAC-beta serine/threonine-protein kinase (Homo sapiens) (UniProt P31751); test: Selectivity interaction (KinomeScan (DiscoverX)) EUB0001619a AKT2; settings: at 1 µM
Sequence of RAC-beta serine/threonine-protein kinase (Homo sapiens) (P31751 whole entry): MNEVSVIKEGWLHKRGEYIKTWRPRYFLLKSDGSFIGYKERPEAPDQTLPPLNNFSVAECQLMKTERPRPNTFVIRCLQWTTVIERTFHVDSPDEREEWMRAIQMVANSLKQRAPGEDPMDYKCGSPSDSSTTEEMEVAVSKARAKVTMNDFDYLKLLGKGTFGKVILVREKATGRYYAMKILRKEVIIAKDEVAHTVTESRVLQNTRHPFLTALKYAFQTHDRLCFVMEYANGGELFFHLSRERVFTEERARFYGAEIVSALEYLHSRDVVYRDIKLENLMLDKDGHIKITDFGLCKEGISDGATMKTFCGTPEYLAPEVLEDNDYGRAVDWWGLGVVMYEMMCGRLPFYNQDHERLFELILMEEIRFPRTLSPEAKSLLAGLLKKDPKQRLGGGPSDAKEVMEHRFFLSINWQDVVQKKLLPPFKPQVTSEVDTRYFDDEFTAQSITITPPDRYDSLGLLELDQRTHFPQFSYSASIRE

[12] = target: Ephrin type-A receptor 4 (Homo sapiens, UniProt P54764); test: Selectivity interaction (KinomeScan (DiscoverX)) EUB0001619a EPHA4; settings: at 1 µM
[13] = test system: Tyrosine-protein kinase ABL1 (Homo sapiens), P00519 [F317L]; test: Selectivity interaction (KinomeScan (DiscoverX)) EUB0000618a ABL1; settings: at 10 µM
[14] = target: T3, Serine/threonine-protein kinase Nek2 (Homo sapiens) (UniProt P51955); test: Selectivity interaction (KinomeScan (DiscoverX)) EUB0000618a NEK2; settings: at 10 µM
T3 sequence (whole entry): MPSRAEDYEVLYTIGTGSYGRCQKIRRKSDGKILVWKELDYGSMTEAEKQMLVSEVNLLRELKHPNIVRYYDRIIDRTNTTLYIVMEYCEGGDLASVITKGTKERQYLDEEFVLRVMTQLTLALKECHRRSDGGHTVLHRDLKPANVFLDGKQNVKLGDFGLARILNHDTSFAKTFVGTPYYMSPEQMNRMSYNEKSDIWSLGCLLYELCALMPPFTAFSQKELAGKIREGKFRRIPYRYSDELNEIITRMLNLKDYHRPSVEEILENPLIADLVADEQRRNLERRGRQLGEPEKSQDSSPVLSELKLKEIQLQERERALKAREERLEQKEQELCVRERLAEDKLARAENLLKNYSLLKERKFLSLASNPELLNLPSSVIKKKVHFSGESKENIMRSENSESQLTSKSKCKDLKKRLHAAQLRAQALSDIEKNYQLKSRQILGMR

[15] = target: Serine/threonine-protein kinase PAK 2 (Homo sapiens) (UniProt Q13177); test: Selectivity interaction (KinomeScan (DiscoverX)) EUB0000618a PAK2; settings: at 10 µM
Sequence of Serine/threonine-protein kinase PAK 2 (Homo sapiens) (Q13177 whole entry): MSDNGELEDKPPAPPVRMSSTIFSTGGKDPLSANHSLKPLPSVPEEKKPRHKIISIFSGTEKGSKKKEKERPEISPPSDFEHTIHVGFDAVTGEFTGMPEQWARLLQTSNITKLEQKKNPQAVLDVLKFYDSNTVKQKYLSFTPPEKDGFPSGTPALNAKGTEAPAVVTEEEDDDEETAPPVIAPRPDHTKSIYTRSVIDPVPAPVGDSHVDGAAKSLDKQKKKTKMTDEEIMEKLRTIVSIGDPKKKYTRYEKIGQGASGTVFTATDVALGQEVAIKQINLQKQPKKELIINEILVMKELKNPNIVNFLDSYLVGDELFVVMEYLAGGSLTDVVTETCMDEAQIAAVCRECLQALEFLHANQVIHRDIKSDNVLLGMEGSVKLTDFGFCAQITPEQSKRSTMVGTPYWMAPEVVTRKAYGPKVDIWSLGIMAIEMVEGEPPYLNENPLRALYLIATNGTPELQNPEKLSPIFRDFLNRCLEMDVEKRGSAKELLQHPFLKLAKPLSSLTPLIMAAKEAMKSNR

[16] = target: 5-hydroxytryptamine receptor 1B (Homo sapiens) (UniProt P28222); test: Selectivity interaction (Safety Panel 44tm (Eurofins)) EUB0000162b HTR1B; settings: at 10 µM
[17] = target: Serine/threonine-protein kinase 33 (Homo sapiens) (UniProt Q9BYT3); test: Selectivity interaction (KinomeScan (DiscoverX)) EUB0000607a STK33; settings: at 10 µM

Sequence of Protein kinase C beta type (P05771 2-671 limits assumed): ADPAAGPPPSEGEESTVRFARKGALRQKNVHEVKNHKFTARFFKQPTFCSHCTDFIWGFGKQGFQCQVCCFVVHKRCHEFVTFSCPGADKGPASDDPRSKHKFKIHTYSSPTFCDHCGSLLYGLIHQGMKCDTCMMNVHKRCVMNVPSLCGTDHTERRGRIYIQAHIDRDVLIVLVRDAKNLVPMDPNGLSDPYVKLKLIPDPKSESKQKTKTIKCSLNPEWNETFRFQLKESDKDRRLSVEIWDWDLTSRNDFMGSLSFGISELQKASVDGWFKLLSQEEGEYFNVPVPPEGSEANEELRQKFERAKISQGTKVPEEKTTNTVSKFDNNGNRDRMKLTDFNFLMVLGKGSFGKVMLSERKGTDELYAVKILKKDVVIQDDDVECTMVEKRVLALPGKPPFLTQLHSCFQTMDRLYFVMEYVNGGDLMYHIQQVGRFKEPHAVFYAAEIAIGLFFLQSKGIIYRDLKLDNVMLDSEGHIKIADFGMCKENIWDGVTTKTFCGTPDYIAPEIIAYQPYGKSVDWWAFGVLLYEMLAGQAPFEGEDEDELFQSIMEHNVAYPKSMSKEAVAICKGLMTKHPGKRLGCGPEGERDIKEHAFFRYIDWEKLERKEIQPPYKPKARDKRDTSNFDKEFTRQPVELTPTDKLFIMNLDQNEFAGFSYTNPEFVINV

SMILES: Cc1cc([C@@H](C)Nc2ccccc2C(=O)O)c2nc(N3CCOCC3)cc(=O)n2c1 [AZD-6482]
% of control [1]: 73%

% of control [2]: 102%
SMILES: CC(=O)Nc1cccc(-n2c(=O)n(C3CC3)c(=O)c3c(Nc4ccc(I)cc4F)n(C)c(=O)c(C)c32)c1

% of inhibition [3]: 43.3%
SMILES: CC[C@@H]1[C@H](F)C(=O)N[C@@H]1COc1nccc2cc(C(N)=O)c(OC)cc12 [ZIMLOVISERTIB]

% of inhibition [4]: -8%
SMILES: CN1Cc2nccc(-c3cn(C)nc3-c3ccc(F)cc3)c2C1=O

SMILES: Cc1cc(F)c(C(=O)Nc2cccc(-c3nncn3C(C)C)n2)cc1-n1cnc(C2CC2)c1
% of control [5]: 79%

SMILES: Nc1cnc(N2CCc3cc(S(=O)(=O)Nc4c(F)cc(Cl)cc4F)cc(N4CCCC4=O)c32)nc1 [TP-020n]
% of control [6]: 80%
% of control [7]: 100%

% of control ([8]; at 1 µM): 84%
% of control ([8]; at 5 µM): 84%
SMILES: C=CC(=O)Nc1cccc(C(=O)Nc2ccc(Nc3cc(-c4[nH]c(SC)nc4C)ccn3)cc2)c1

SMILES: CCC(=O)N1CCN(c2ccc(-n3c(=O)ccc4cnc5ccc(-c6cnc7ccccc7c6)cc5c43)cc2C(F)(F)F)CC1
% of control [9]: 77%
% of control [10]: 100%

SMILES: N#Cc1cccc(-c2c[nH]c3ncnc(N4CCOCC4)c23)c1
% of control [11]: 100%
% of control [12]: 100%

SMILES: O[C@H]1CC[C@H](Nc2ncc3nc(Nc4c(F)cc(F)cc4F)n([C@H]4CCOC4)c3n2)CC1
% of control [13]: 30%
% of control [14]: 100%
% of control [15]: 100%

SMILES: CN(C)C(=O)Cn1cc(-c2ccc(-c3cncc4ccccc34)cc2)cn1
% of control [16]: 53%

SMILES: CNC(=O)Nc1ccc(-c2nc(N3CC4CCC(C3)O4)c3cnn(C4CCC5(CC4)OCCO5)c3n2)cc1
% of control [17]: 82%
